Assays:
468 kinases = assay: KINOMEscan scanMAX kinase selectivity panel; format: binding, human
[1] = test system: more than 200 full-length kinases in Hela cell lysate; assay: Kinobead pulldown assay in cellular lysate; format: binding, human; settings: dose–response 30 μM to 1 nM
HeLa cells = assay: Quantitative phosphoproteomic analysis; format: cell-based, human; settings: 30 min, 100 μM (LIMKi3, TH470) or 1 mM (TH257) as printed; for Significantly regulated phosphosites: p<0.01

Compound | Interaction with other kinases in KINOMEscan panel (468 kinases; screened at 1 μM, 468 kinases) | Hits identified in kinobead assay [1] | Additional off-targets identified besides LIMK1/2 (468 kinases; selectivity profiling) | Downregulated phosphosites (HeLa cells) [sites] | Upregulated phosphosites (HeLa cells) [sites] | Significantly regulated phosphosites (HeLa cells) [sites]
O=C(NCc1ccccc1)c1ccc(S(=O)(=O)NCc2ccccc2)cc1 [Compound 26, N-benzyl-4-(benzylsulfamoyl)benzamide] | no interacting kinase | No other hits except LIMK1 and LIMK2 were identified | – | – | – | –
O=C(c1ccc(S(=O)(=O)Nc2ccccc2)cc1)N(Cc1ccccc1)Cc1cn(Cc2ccccc2)nn1 [Compound 33, N-benzyl-N-[(1-benzyl-1H-1,2,3-triazol-4-yl)methyl]-4-(phenylsulfamoyl)benzamide] | – | – | four | – | – | –
CC(C)C(=O)Nc1ncc(C(=O)NCCN(Cc2ccccc2)C(=O)c2ccc(S(=O)(=O)Nc3ccccc3)cc2)s1 [Compound 48, N-benzyl-N-(2-{[2-(2-methylpropanamido)-1,3-thiazol-5-yl]formamido}ethyl)-4-(phenylsulfamoyl)benzamide] | – | No other hits except LIMK1 and LIMK2 were identified | – | 193 | 146 | 339
CC(C)C(=O)Nc1ncc(-c2cc(C(F)F)nn2-c2c(Cl)cccc2Cl)s1 [Compound 1, reference compound] | – | No other hits except LIMK1 and LIMK2 were identified | – | 173 | 189 | 362
